Test results taken from PubChem BioAssay AID2124 (Sanford-Burnham Center for Chemical Genomics, 2009).
Results filed as inconclusive are left out. Calls of active or inactive are those of the source. The rule behind the calls is not given here; tested in MIN6 cells.

Test: cell-permeable autofluorescent compounds in GFP channel, dose response, artefact control, imaging, high-content imaging (AID 2124);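 note: cells exposed to compound for 48 hours before fixing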
Details: cells, GFP-channel autofluorescence, high-content imaging, at 10 µM; for z-score: stronger effect = higher value

With O=C(CSc1ccc(-c2ccccc2)nn1)NCC1CCCO1 (centres undefined) the z-score was -0.38 (inactive) and the cell count was 2970 cells.
In the case of Cc1c(C(=O)O)cccc1-c1ccc(/C=C2/NC(=O)N(c3ccccc3)C2=O)o1, the z-score is reported as -0.39 (inactive) and the cell count is reported as 3120 cells.
In the case of CN1C(=S)N(c2cccnc2)C(=O)/C1=C\c1ccc(N(C)C)cc1, the z-score is reported as -0.22 (inactive) and the cell count is reported as 3030 cells.
In the case of COc1ccc2nc(SCC(=O)Nc3c(C)cccc3C)[nH]c2c1, the z-score is reported as -0.39 (inactive) and the cell count is reported as 3480 cells.
In the case of O=C(N/N=C\c1cn(-c2ccccc2)nc1-c1ccccc1)c1ccc(Br)o1, the z-score is reported as -0.32 (inactive) and the cell count is reported as 626 cells.
With CCCOc1ccc(-c2nn(-c3ccccc3)cc2/C=C2\SC(=S)N(C3CCS(=O)(=O)C3)C2=O)cc1 (centres undefined) the z-score was -0.23 (inactive) and the cell count was 2830 cells.
For CCCS(=O)(=O)N1CCC(C(=O)N2CCOCC2)CC1, the z-score was -0.38 (inactive) and the cell count was 2930 cells.
In the case of Cc1ccc(Nc2nc3c([nH]2)c(=O)n(C)c(=O)n3C)cc1, the z-score is reported as -0.39 (inactive) and the cell count is reported as 2720 cells.
For CCCCCCc1cc2cc(-c3nnc(-c4ccccc4OC)o3)c(=O)oc2cc1O, the z-score was -0.21 (inactive) and the cell count was 2630 cells.
For CC(=O)C(=Cc1cn(-c2ccccc2)nc1-c1ccccc1)C(C)=O, the z-score was -0.32 (inactive) and the cell count was 3020 cells.
With O=C(CCN1C(=O)/C(=C/c2cccs2)SC1=S)NNC(=O)c1cccc(O)c1 the z-score was -0.33 (inactive) and the cell count was 3190 cells.
With COc1cccc(/C=N/NC(=O)CCn2cnc3ccccc32)c1 the z-score was -0.33 (inactive) and the cell count was 3250 cells.
COc1ccc(/C(O)=C/c2nc3ccc(C(=O)NCCc4cccc(C)c4)cc3[nH]c2=O)cc1OC showed a z-score of 0.56 and a cell count of 1180 cells.
For Cc1ccc(Nc2nc(Cl)c(C=O)s2)cc1Cl, the z-score was -0.27 (inactive) and the cell count was 2840 cells.
With COCCN(CCOC)Cc1cc(=O)oc2cc3c(cc12)CCC3 the z-score was -0.38 (inactive) and the cell count was 3160 cells.
For COc1ccc2c(C(=O)CN(C)C3CCCCC3)c[nH]c2c1, the z-score was -0.37 (inactive) and the cell count was 3190 cells.
With CCOc1ccc2[nH]c(=O)c(CN(CCc3ccccc3)C(=O)N3CCOCC3)cc2c1 the z-score was -0.26 (inactive) and the cell count was 3100 cells.
With CCc1c(C(=O)NC2CCCCC2)[nH]c(C)c1C(C)=O the z-score was -0.25 (inactive) and the cell count was 3040 cells.
With Cc1cc(C)n(-c2ccc(OCC(=O)O)nn2)n1 the z-score was -0.33 (inactive) and the cell count was 3400 cells.
For CCOC(=O)c1nnn(-c2nonc2N)c1-c1ccc(OCC)cc1, the z-score was -0.39 (inactive) and the cell count was 3520 cells.
With Cc1[nH]c2ccccc2c1Cc1nnc(SCC(N)=O)o1 the z-score was -0.26 (inactive) and the cell count was 2780 cells.
In the case of CN1CCNC(=O)C1CC(=O)NCCC1=CCCCC1 (centres undefined), the z-score is reported as -0.38 (inactive) and the cell count is reported as 3160 cells.
In the case of Cc1cccc(-c2ncc(CN3CCCC(CO)(Cc4ccccc4C)C3)cn2)c1 (centres undefined), the z-score is reported as -0.35 (inactive) and the cell count is reported as 3340 cells.
COc1cc2c3nnc(-c4ccccc4)c-3cn(Cc3ccccc3F)c2cc1OC showed a z-score of 3.78 and a cell count of 770 cells.
In the case of O=c1c(N2CCOCC2)c(N2CCOCC2)c1=O, the z-score is reported as -0.39 (inactive) and the cell count is reported as 3130 cells.
In the case of Cn1c(=O)c(NC2CCCCC2)c2c3c(cccc31)C(=O)c1ccccc1-2, the z-score is reported as 3.32 and the cell count is reported as 3050 cells.
For COc1cc(Cl)c(C)cc1NC(=O)CN(C)Cc1cccc(OC)c1OC, the z-score was -0.26 (inactive) and the cell count was 2910 cells.
With CCCn1nc2cc(C(=O)NCc3ccccc3)ccc2c1OCC the z-score was -0.33 (inactive) and the cell count was 3340 cells.
Compound Cc1nnc(NC(=O)c2sc3nc(-c4cccs4)cc(C(F)(F)F)c3c2N)s1 has a z-score of 0.85 and a cell count of 2610 cells.
With Nc1nnc(-c2cc3c(ccc4ccccc43)oc2=O)s1 the z-score was -0.23 (inactive) and the cell count was 2510 cells.
For Cc1ccc(S(=O)(=O)c2cccc(S(=O)(=O)N3CCCC3)c2)cc1S(=O)(=O)N1CCCC1, the z-score was -0.33 (inactive) and the cell count was 2360 cells.
In the case of O=C(CCl)Nc1cccc2ncccc12, the z-score is reported as -0.38 (inactive) and the cell count is reported as 2060 cells.
In the case of Cc1cc(C)c(C(=O)O)c(CC(C)(C)C(=O)O)c1, the z-score is reported as -0.33 (inactive) and the cell count is reported as 3280 cells.
Compound COC(=O)c1cc(NC(=O)c2ccccc2)c(=O)oc1/C=C/Nc1ccc(Oc2ccccc2)cc1 has a z-score of 0.11 and a cell count of 3070 cells.
For C=CCn1c(-c2oc3nc(-c4ccccc4)cc(-c4ccccc4)c3c2N)n[nH]c1=S, the z-score was -0.33 (inactive) and the cell count was 2820 cells.
With CN(C)C=Nc1ccc2nn(-c3ccccc3)nc2c1 the z-score was -0.34 (inactive) and the cell count was 3050 cells.
With CCCCn1c(=O)[nH]c2nc3cc(N)ccc3nc2c1=O the z-score was -0.32 (inactive) and the cell count was 3540 cells.
With Nc1c(C(=O)NC2CCCC2)sc2nc(-c3cccs3)ccc12 the z-score was -0.31 (inactive) and the cell count was 2460 cells.
With COC(=O)c1ccc(COc2ccc3c(C)c(C)c(=O)oc3c2)o1 the z-score was -0.33 (inactive) and the cell count was 3400 cells.
In the case of CCCN1CC=C2C(C#N)=C(N)C(C#N)(C#N)C(c3cccc(OC)c3OC)C2C1 (centres undefined), the z-score is reported as 0.21 and the cell count is reported as 3050 cells.
In the case of O=C(COC(=O)c1cc(S(=O)(=O)N2CCOCC2)ccc1O)NCC1CCCO1 (centres undefined), the z-score is reported as -0.33 (inactive) and the cell count is reported as 3080 cells.
With Cc1oc(C)c2c(=O)ccc3c(c12)OC(N)=C(C#N)C3c1ccccc1 (centres undefined) the z-score was -0.38 (inactive) and the cell count was 2830 cells.
With Cc1cc(C)nc(N2CCC(C(=O)Nc3ccc4c(c3)OCCO4)CC2)n1 the z-score was -0.33 (inactive) and the cell count was 2790 cells.
CCN1C=CC2=C(C#N)C(N)C(C#N)(C#N)C(c3ccccc3C(F)(F)F)C2C1 (centres undefined) gave a z-score of 0.77 and a cell count of 2720 cells.
For COC(=O)c1cc2c(-c3ccccc3)cc3ccccn3c-2c1C(=O)OC, the z-score was -0.23 (inactive) and the cell count was 2880 cells.
With COCc1cc(C)nc(Nc2ccccc2C)c1C#N the z-score was -0.34 (inactive) and the cell count was 3240 cells.
In the case of O=C(CSc1ncn[nH]1)NCc1ccccc1, the z-score is reported as -0.39 (inactive) and the cell count is reported as 3380 cells.
In the case of O=C(COC(=O)c1ccco1)NCC1CCCO1 (centres undefined), the z-score is reported as -0.39 (inactive) and the cell count is reported as 2790 cells.
For O=C(O)CC12CSc3[nH]c(=O)sc3C1c1ccccc1OC2=O (centres undefined), the z-score was -0.33 (inactive) and the cell count was 3020 cells.
For c1ccc(-n2ncc3c(N4CCN(c5ccccn5)CC4)nc(N4CCCCCC4)nc32)cc1, the z-score was -0.38 (inactive) and the cell count was 3020 cells.
With CC1CCCN(c2nc3c(c(=O)n(C)c(=O)n3C)n2CCSc2nc3ccccc3s2)C1 (centres undefined) the z-score was -0.38 (inactive) and the cell count was 3180 cells.
CCCN1CC=C2C(C#N)=C(N)C(C#N)(C#N)C(c3cc(OC)ccc3OC)C2C1 (centres undefined) showed a z-score of 0.52 and a cell count of 3140 cells.
For CCCCn1c(SCC(=O)O)nc2ccccc21, the z-score was -0.33 (inactive) and the cell count was 2830 cells.
For O=C(Cc1nc(-c2ccc([N+](=O)[O-])cc2)cs1)Nc1ccccc1, the z-score was -0.39 (inactive) and the cell count was 2770 cells.
In the case of Cc1ccc(NC(=O)CCl)c(C)c1, the z-score is reported as -0.33 (inactive) and the cell count is reported as 2480 cells.
With CN(C)c1ccc(/C=C2\C(=N)N3C(=NC2=O)Sc2cc(S(C)(=O)=O)ccc23)cc1 the z-score was -0.29 (inactive) and the cell count was 2790 cells.
In the case of O=C(/C=C/c1ccco1)NC(=S)Nc1ccccc1N1CCCC1, the z-score is reported as -0.39 (inactive) and the cell count is reported as 2690 cells.
